Results as given in patent US20070027143A1, “Novel substituted 2,3-benzodiazepine derivatives” (priority 2003, published 2007).
Read-outs that look alike come from different tables or passages of the source. Marks after values point to notes of the source that are not given here.

What was measured:
CD1 mice [1] = assay: Anticonvulsant activity, 4-aminopyridine induced seizures; type: in vivo; details: Mus musculus; po.; read-out: 4-AP ED50
Description: (§1) The anti-seizure activity of some of the compounds of the present invention was measured using the electroshock test (J. Pharmacol. Exp. Ther. 106:319 (1952)) and the results are shown in Table 3. The spasmolytic activity of the compounds of the present invention was investigated by using e.g., pentetrazole (J. Pharmacol. Exp. Ther. 108:168 (1953)), strychnine (J. Pharmacol. Exp. Ther. 129:75 (1960)), bemegrid, nicotine, bicuculline, 4-aminopyridine and mercapto-propionic acid for inducing the clonic-tonic seizures and lethality. The investigated compounds were administered orally in three doses using 10 male CD1 mice/dose, usually 60 min before the induction of seizures.

CD1 mice [2] = assay: Anticonvulsant activity, nicotine induced seizures; type: in vivo; details: Mus musculus; po.
Description: as §1

CD1 mice [3] = assay: Anticonvulsant activity, 3-mercapto-propionic acid induced seizures; type: in vivo; details: Mus musculus; po.; read-out: 3-MPA ED50
Description: as §1

CD1 mice [4] = assay: Anticonvulsant activity, bicuculline induced seizures; type: in vivo; details: Mus musculus; po.; read-out: Bicuculline ED50
Description: as §1

CD1 mice [5] = assay: Anticonvulsant activity, strychnine induced seizures; type: in vivo; details: Mus musculus; po.; read-out: Strychnine ED50
Description: as §1

CD1 mice [6] = assay: Anticonvulsant activity, pentetrazole induced seizures; type: in vivo; details: Mus musculus; po.; read-out: Pentetrazol ED50
Description: as §1

CD1 mice [7] = assay: Muscle relaxant activity, inclined screen test; type: in vivo; details: Mus musculus, ip
CD1 mice [8] = assay: Anticonvulsant activity, maximal electroshock seizure (MES) test; type: in vivo; details: Mus musculus, po.
Description: as §1

CD1 mice [9] = assay: Muscle relaxant activity, rotarod test; type: in vivo; details: Mus musculus, ip
CD1 mice [10] = assay: Anticonvulsant activity, bemegride induced seizures; type: in vivo; details: Mus musculus; po.; read-out: Bemegride ED50
Description: as §1

AMPA/kainate receptors = assay: Inhibition of AMPA induced whole-cell current in acutely isolated cerebellar Purkinje cells (patch clamp); type: cell-based; details: 5 μM AMPA, read-out: Inhibition of the ion-currents caused by 5 μM AMPA, IC50
Description: (§2) In the first model the spreading depression caused by glutamate agonists (i.e., AMPA or kainate) was studied, while in the second one the transmembrane ion-current induced by the activation of the AMPA/kainate receptors was measured directly.
The activity of the compounds of the present invention was studied on acutely isolated cerebellar Purkinje cells by measuring the whole-cell current induced by 5 μM AMPA according for example to the method described by Bleakman et al (Neuropharmacology 12:1689 (1996)).

AMPA receptors = assay: Inhibition of AMPA induced spreading depression in isolated chicken retina; type: cell-based; details: AMPA (5 μM)
Description: as §2
Inhibition of AMPA Induced “Spreading Depression” in Isolated Chicken Retina—
The AMPA antagonistic effect of the compounds of formula (I) or (II) was studied in the in vitro “spreading depression” model (Sheardown Brain Res. 607:189 (1993)). The AMPA antagonists prolong the latency of the development of the “spreading depression” caused by AMPA (5 μM).

Lewis rats [11] = assay: Autoimmune encephalomyelitis model, neurological (clinical) symptoms; type: in vivo; details: for change in vivo at 3.75 mg/kg / change in vivo at 7.5 mg/kg / change in vivo at 1.875 mg/kg: Rattus norvegicus, ip, read-out: Neurological symptoms (change compared to controls, %); for change in vivo at 3.75 mg/kg: 3.75 mg/kg ip.; for change in vivo at 7.5 mg/kg / Neurological symptoms (change, %): 7.5 mg/kg ip.; for Neurological symptoms (change, %): day 24 after immunization; for change in vivo at 1.875 mg/kg: 1.875 mg/kg ip.
Description: (§3) The compounds were administered intraperitoneally twice a day for 8 days, starting on day 10 after immunization and with an observation period until symptoms were present. 5-15 animals were used in each group. Their weights were 160-180 g (Lewis rats, female) and 180-220 g (Lewis rats, male). The activity of the compounds was determined according to the symptom score values, and compared to those of the control group (see Table 6). Histopathological investigations were carried out on the brain stem, the spinal cord, and the sciatic nerve (Gijbels et al., J. Clin. Invest. 94:2177 (1994)) using 5-10 animal/group.
(§4) Compounds of the invention were further investigated in the autoimmune encephalomyelitis model in rats as outlined in this description before, with the variance that 10 animals were used in each group, of weights 140-160 g (Lewis rats, female).

rats = assay: Inhibition of focal ischemia, middle cerebral artery occlusion (MCAO) test; type: in vivo
Description: The focal anti-ischemic activity of the compounds of formula (I) or (II) of the present invention was measured by the “middle cerebral artery occlusion” (MCAO) test (Bartus Stroke 11:2265 (1994) and Sydserff et al, Brit. J. Pharmacol. 114:1631 (1995)). […] After a histological process (TTC staining) 24 h later, the infarcted area was determined by a computer assisted scanner program and was compared to the results obtained in a control group treated with the vehicle.

Lewis rats [12] = assay: Autoimmune encephalomyelitis model, histological symptoms; type: in vivo; details: 7.5 mg/kg ip., day 24 after immunization
Description: as §3, with “5-15” for “The compounds were administered intraperitoneally twice a day for 8 days, starting on day 10 after immunization and with an observation period until symptoms were present. 5-15”
as §4

CD1 mice [13] = assay: Anti-tremor effect, oxotremorine induced tremor; type: in vivo; details: Mus musculus; po., Litchfield-Wilcoxon, limits in brackets; read-out: ED50, tremor induced by Oxotremorin 1 mg/kg ip.
CD1 mice [14] = assay: Anti-tremor effect, GYKI 20039 induced tremor; type: in vivo; details: Mus musculus; po., Litchfield-Wilcoxon, limits in brackets; read-out: ED50, tremor induced by GYKI 20039 10 mg/kg ip.
[15] = 1 h, 60 min before induction, read-out: MES (MES 60′) ED50
[16] = 0.5 h, 30′, read-out: MES 30′ ED50
[17] = 2 mg/kg iv. 6x in every 30 min, first treatment 180 min after occlusion

Row | Structure (SMILES) | ED50 (CD1 mice [1]) [mg/kg] | ED50 (CD1 mice [2]) [mg/kg] | ED50 (CD1 mice [3]) [mg/kg] | ED50 (CD1 mice [4]) [mg/kg] | ED50 (CD1 mice [5]) [mg/kg] | ED50 (CD1 mice [6]) [mg/kg] | melting point [°C] | ED50 (CD1 mice [7]) [mg/kg] | ED50 (CD1 mice [8]; [15]) [mg/kg] | ED50 (CD1 mice [9]) [mg/kg] | ED50 (CD1 mice [10]) [mg/kg] | IC50 (AMPA/kainate receptors) [nM] | IC50 (AMPA receptors) [nM] | ED50 (CD1 mice [8]; [16]) [mg/kg] | change in vivo at 3.75 mg/kg (Lewis rats [11]; female rats, 0-8 day) [%] | change in vivo at 3.75 mg/kg (Lewis rats [11]; female rats, 0-14 day) [%] | change in vivo at 3.75 mg/kg (Lewis rats [11]; male rats, 0-8 day) [%] | change in vivo at 3.75 mg/kg (Lewis rats [11]; male rats, 0-14 day) [%] | change in vivo at 7.5 mg/kg (Lewis rats [11]; female rats, 0-8 day) [%] | change in vivo at 7.5 mg/kg (Lewis rats [11]; female rats, 0-14 day) [%] | further results
1 | CCc1nnc(N2N=C(c3ccc(N)cc3)c3cc4c(cc3C[C@H]2C)OCO4)s1 [Example 89, (R)-5-(4-Aminophenyl)-7-(5-ethyl-1,3,4-thiadiazol-2-yl)-8-methyl-8,9-dihydro-7H-1,3-dioxolo-[4,5-h][2,3]benzodiazepine] | 14.3 | 45.9 | > 50 | 17.1 | 15.7 | 11.5 | 142 to 144 | 4.3 | 10.5 | 1.7 | 11.2 | – | – | – | – | – | – | – | – | – | –
2 | C[C@@H]1Cc2cc3c(cc2C(c2ccc(N)cc2)=NN1c1nncs1)OCO3 [Example 84, (R)-5-(4-Aminophenyl)-8-methyl-7-(1,3,4-thiadiazol-2-yl)-8,9-dihydro-7H-1,3-dioxolo-[4,5-h][2,3]benzodiazepine] | 16.6 | 77.2 | 6.8 | 17 | 18.2 | 17.1 | 219 to 220 | 12.8 | 12.5 | 1.4 | 16.7 | 90 | 850 | 10 to 15 | – | – | – | – | – | – | –
3 | C[C@@H]1Cc2cc3c(cc2C(c2ccc(N)cc2)=NN1C1=NCCS1)OCO3 [Example 69, (R)-5-(4-Aminophenyl)-7-(4,5-dihydro-thiazol-2-yl)-8-methyl-8,9-dihydro-7H-1,3-dioxolo-[4,5-h][2,3]benzodiazepine] | 16.6 | 16.8 | 34.2 | 18.1 | 27.7 | 46.9 | 148 to 150 | 12.2 | 14.7 | 1.2 | 33.3 | 420 | 900 | 8.7 | 43 | 58 | 35 | -40 | -29 | -24 | change in vivo at 7.5 mg/kg (Lewis rats [11]; male rats, 0-8 day): -51%; change in vivo at 7.5 mg/kg (Lewis rats [11]; male rats, 0-14 day): -50%; Decrease of the infracted area in % compared to that of the control (rats; [17]): 28%
4 | C[C@@H]1Cc2cc3c(cc2C(c2ccc(N)cc2)=NN1c1nccs1)OCO3 [Example 61, (R)-5-(4-Aminophenyl)-8-methyl-7-(2-thiazolyl)-8,9-dihydro-7H-1,3-dioxolo[4,5-h][2,3]benzodiazepine] | 17.6 | 59.3 | 11 | 31 | 35.4 | 32.5 | 125 to 130 | 10.7 | 13.1 | 5.4 | 34.4 | 490 | 1000 to 5000 | 11.5 | -44 | -48 | -44 | -46 | -56 | -53 | Neurological symptoms (change, %) (Lewis rats [11]; female rats): −53%; Neurological symptoms (change, %) (Lewis rats [11]; male rats): −54%; change in vivo at 1.875 mg/kg (Lewis rats [11]; female rats, 0-8 day): -18%; change in vivo at 1.875 mg/kg (Lewis rats [11]; female rats, 0-14 day): -7%; change in vivo at 1.875 mg/kg (Lewis rats [11]; male rats, 0-8 day): 13%; change in vivo at 1.875 mg/kg (Lewis rats [11]; male rats, 0-14 day): 5%; change in vivo at 7.5 mg/kg (Lewis rats [11]; male rats, 0-8 day): -60%; change in vivo at 7.5 mg/kg (Lewis rats [11]; male rats, 0-14 day): -63%; Activity compared to the reference compound (histopathological and pharmacological investigations) (Lewis rats [11]; result in words): more active than the reference compound GYKI 53773; Histological symptoms (change, %) (Lewis rats [12]; female rats): −5%; Histological symptoms (change, %) (Lewis rats [12]; male rats): −20%; Decrease of the infracted area in % compared to that of the control (rats; 1 mg/kg iv. 6x in every 30 min, first treatment 120 min after occlusion): 63** %; Decrease of the infracted area in % compared to that of the control (rats; 1 mg/kg iv. 6x in every 30 min, first treatment 180 min after occlusion): 16%; Decrease of the infracted area in % compared to that of the control (rats; [17]): 46* %; Neuroprotective activity when administered 3 h after the occlusion (rats; result in words): significant activity
5 | Cc1nnc(N2N=C(c3ccc(N)cc3)c3cc4c(cc3C[C@H]2C)OCO4)o1 [Example 102, (R)-5-(4-Aminophenyl)-8-methyl-7-(5-methyl-1,3,4-oxadiazol-2-yl)-8,9-dihydro-7H-1,3-dioxolo-[4,5-h][2,3]benzodiazepine] | 20.4 | 31.7 | > 50 | 25.8 | 26.7 | 35.7 | 145 to 149 | 14.8 | 13.9 | 2.9 | 27.9 | – | – | – | – | – | – | – | – | – | –
6 | Cc1cc(C2=NN(c3nncs3)[C@H](C)Cc3cc4c(cc32)OCO4)ccc1N [Example 167, (R)-5-(4-Amino-3-methylphenyl)-8-methyl-7-(1,3,4-thiadiazol-2-yl)-8,9-dihydro-7H-1,3-dioxolo-[4,5-h][2,3]benzodiazepine] | 10.8 | – | 10.3 | 12.7 | 10.5 | 9.66 | 143 to 148 | 4.24 | 5.85 | 0.8 | 8.33 | 70 | 64 | 4.78 | – | – | – | – | – | – | ED50 (CD1 mice [13]): 4.81 mg/kg; ED50 (CD1 mice [14]): 7.73 mg/kg
